Series [1] has as its system Acanthamoeba castellanii T4 isolate (ATCC 50370) trophozoites. The experiment in a line: CellTiter-Glo 2.0 trophocidal assay, A. castellanii. The conditions noted are these: Acanthamoeba castellanii, ATCC50370, 72 h, read-out: Acanthamoeba castellanii EC50 ± SD. It counts as cell-based. From the text:
This isolate was purchased from American Type Culture Collection (ATCC). […] For sub-culturing, cells were mechanically harvested to detach the cells from the culture flasks.

Series [2] relates to Balamuthia mandrillaris (CDC:V039; ATCC 50209) trophozoites. In words: CellTiter-Glo 2.0 trophocidal assay, B. mandrillaris. It counts as cell-based. From the text:
For sub-culturing, 0.25% Trypsin–EDTA (Gibco) cell detachment reagent was used to detach the cells from the culture flasks.

The subject of series [3] is Naegleria fowleri (ATCC 30215) trophozoites. The experiment in a line: microbe, parasite or virus in culture. The protocol: Trophozoites were routinely grown axenically at 34°C, 5% CO2, in Nelson’s complete medium (NCM) in non-vented 75 cm^2 tissue culture flasks (Olympus), until the cells were 80–90% confluent. For sub-culturing, cells were placed on ice to detach the cells from the culture flasks. […] Complete NCM media is prepared by the addition of 10% fetal bovine serum (FBS) and 100 U/mL penicillin, and 100 μg/mL streptomycin antibiotics.
Trophozoites were routinely cultured as described above and only logarithmic trophozoites were used.
All assays were incubated at each of the parasites’ representative growth temperatures, described above, for 72 h. At the 72-h time point, 25 μL of CellTiter-Glo 2.0 reagent was added to all wells of the 96-well plates by hand. The plates were protected from light and contents were mixed using an orbital shaker at 300 rpm at room temperature for 2 min to induce cell lysis. After shaking, the plates were equilibrated at room temperature for 10 min to stabilize the luminescent signal. The ATP luminescent signal (relative light units; RLUs) were measured […] with a SpectraMax I3X plate reader (Molecular Devices, Sunnyvale, CA, United States). […] Values reported are from a minimum of three biological replicates with standard deviation.

[4] abbreviates: Balamuthia mandrillaris, ATCC50209, 72 h, read-out: Balamuthia mandrillaris EC50 ± SD, logarithmic trophozoites, 72 h, n = 3 (converted).
Setting [5] is: logarithmic trophozoites, 72 h, n = 3.
The mark [6] stands for this setting: Naegleria fowleri, 72 h, read-out: Naegleria fowleri EC50 ± SD, logarithmic trophozoites, 72 h, n = 3 (converted).
The mark [7] stands for this setting: Balamuthia mandrillaris, ATCC50209, 72 h, logarithmic trophozoites, 72 h, n = 3, read-out: Balamuthia mandrillaris EC50 ± SD.
[8] abbreviates: Naegleria fowleri, ATCC30215, 72 h, read-out: Naegleria fowleri EC50 ± SD, logarithmic trophozoites, 72 h, n = 3 (converted).
[9] abbreviates: Balamuthia mandrillaris, ATCC50209, 72 h, read-out: Balamuthia mandrillaris EC50 ± SD.

The source of these data is paper PMC10206040, “Identification of novel anti-amoebic pharmacophores from kinase inhibitor chemotypes” (Frontiers in Microbiology, 2023).

The structures appear in SMILES notation. Like-named read-outs stand apart in the source and are kept apart here.

On to `Cc1n[nH]c(Nc2cccc3c2CN(C)C3=O)c1C` [Compound S8, 4-((3,4-Dimethyl-1H-pyrazol-5-yl)amino)-2-methylisoindolin-1-one], for which the EC50 in series [1] and in series [2] (setting [4]) was more than 20 µM throughout.
In the case of `CC(=O)c1ccc2c(c1)c1cc(C(C)=O)ccc1n2CCNC1CCCCC1` [Compound 8a], the EC50 in series [2] (setting [4]) was 6.8 ± 0.1 µM.
With `CN1CCC2(CC1)CCN(c1ncc(-c3ccc4c(Nc5cnccn5)ccnc4c3)cn1)CC2` [Compound S35], the EC50 in series [1] (setting [5]), in series [3] (setting [6]) and in series [2] (setting [7]) was more than 20 µM throughout.
On to `CN1C[C@@H]2C[C@H]1CN2c1ncc(-c2ccc3c(Nc4cnccn4)ccnc3c2)cn1` [Compound S34], for which the EC50 in series [1] (setting [5]), in series [3] (setting [6]) and in series [2] (setting [7]) was more than 20 µM in each case.
For `CC(=O)c1ccc2c(c1)c1cc(C(C)=O)ccc1n2CCN1CCCCC1` [Compound 8d], the EC50 is 4.3 ± 0.22 µM in series [3] (setting [6]) and 12 ± 0.26 µM in series [2] (setting [4]).
Regarding `CCC(C)(C)C(=O)O[C@H]1C[C@@H](C)C=C2C=C[C@H](C)[C@H](CC[C@@H]3C[C@@H](O)CC(=O)O3)[C@H]21` [Simvastatin, reference compound], the EC50 in series [2] (setting [7]) is 6.9 ± 0.04 µM.
With `Cn1cc(Nc2nc(NCC(F)(F)F)c3ncn(C)c3n2)cn1` [Compound 6c], in series [3] (setting [8]), the EC50 is more than 20 µM.
With `CC(=O)c1ccc2c(c1)c1cc(C(C)=O)ccc1n2CCN1CCNCC1` [Compound S38], the EC50 in series [1], in series [3] (setting [6]) and in series [2] (setting [4]) was more than 20 µM each time.
Turning to `CC(=O)c1ccc2c(c1)c1cc(C(C)=O)ccc1n2CCCN(C)C` [Compound 8f], the EC50 in series [3] (setting [8]) was 17 ± 0.2 µM; in series [2] (setting [7]) it was 19 ± 1.1 µM.
Take `CC(=O)c1ccc2c(c1)c1cc(C(C)=O)ccc1n2-c1ccc(N(C)C)cc1` [Compound S37]: the EC50 in series [1] (setting [5]), in series [3] (setting [6]) and in series [2] (setting [7]) was more than 20 µM throughout.
In the case of `c1nc2c(N3CCOCC3)nc(Nc3ccsc3)nc2[nH]1` [Compound S25], the EC50 in series [1] (setting [5]), in series [3] (setting [6]) and in series [2] (setting [7]) was more than 20 µM each time.
For `CC(=O)c1ccc2c(c1)c1cc(C(C)=O)ccc1n2CCN1CC(C)C1` [Compound 8i], the EC50 in series [3] (setting [6]) is 18 ± 0.45 µM; in series [2] (setting [4]) it was 7.3 ± 0.28 µM.
For the compound `CN1CC2(CCN(c3ncc(-c4ccc5c(Nc6cnccn6)ccnc5c4)cn3)C2)C1` [Compound 7b], the EC50 in series [2] (setting [7]) came to 1.4 ± 0.17 µM.
Turning to `CC(=O)c1ccc2c(c1)c1cc(C(C)=O)ccc1n2CCN1CC(F)C1` [Compound S39], the EC50 in series [1] and in series [2] (setting [4]) was more than 20 µM in each case.
For `CC(=O)c1ccc2c(c1)c1cc(C(C)=O)ccc1n2CCN1CCCOCC1` [Compound 8j], the EC50 in series [3] (setting [6]) is 10 ± 1.4 µM; in series [2] (setting [4]), 3.3 ± 0.24 µM.
`CC(=O)c1ccc2c(c1)c1cc(C(C)=O)ccc1n2CCN1CC(N(C)C)C1` [Compound S41]: the EC50 in series [1] and in series [2] (setting [4]) was more than 20 µM throughout.
Regarding `N=C(N)c1ccc(OCCCCCOc2ccc(C(=N)N)cc2)cc1` [Pentamidine, reference compound], the EC50 was 4.2 ± 0.08 µM in series [1] (setting [5]), more than 50 µM in series [3] (setting [8]) and 18.4 ± 1.47 µM in series [2] (setting [7]).
As for `CC(=O)c1ccc2c(c1)c1cc(C(C)=O)ccc1n2CCOC(C)C` [Compound S40], the EC50 in series [1] and in series [2] (setting [4]) was more than 20 µM in each case.
In the case of `CC(=O)c1cc2c3cc(C(C)=O)c(O)cc3n(CCNC(C)C)c2cc1O` [Compound 8b], the EC50 in series [3] (setting [8]) is 8.8 ± 0.71 µM; in series [2] (setting [7]), 11 ± 0.35 µM.
Take `Brc1ccc2nc(-c3ccccn3)c(Nc3ccc4c(c3)OCO4)n2c1` [Compound 3e]: the EC50 in series [1] (setting [5]) and in series [3] (setting [8]) was more than 20 µM each time.
Consider `c1cnc(Nc2ccnc3cc(C4CCCNC4)ccc23)cn1` (stereo not drawn) [Compound S18, 7-(Piperidin-3-yl)-N-(pyrazin-2-yl)quinolin-4-amine], for which the EC50 in series [1] (setting [5]), in series [3] (setting [8]) and in series [2] (setting [7]) was more than 20 µM throughout.
As for `CC[C@H]1OC(=O)[C@H](C)[C@@H](O[C@H]2C[C@@](C)(OC)[C@@H](O)[C@H](C)O2)[C@H](C)[C@@H](O[C@@H]2O[C@H](C)C[C@H](N(C)C)[C@H]2O)[C@](C)(O)C[C@@H](C)CN(C)[C@H](C)[C@@H](O)[C@]1(C)O` [Azithromycin, reference compound], the figures for the EC50 in series [1] (setting [5]), in series [3] (setting [8]) and in series [2] (setting [7]) were 0.26 ± 0.14 µM, 0.02 ± 0.01 µM and more than 20 µM, respectively.
On to `Cn1cc(-c2ccnc3[nH]c(-c4ccc(C(N)=O)cc4)cc23)cn1` [Compound 5e], for which the EC50 in series [2] (setting [4]) is 1.8 ± 0.24 µM.
Take `CC(=O)c1ccc2c(c1)c1cc(C(C)=O)ccc1n2CCNCCN(C)C` [Compound S42]: the EC50 in series [1] and in series [2] (setting [4]) was more than 20 µM each time.
Consider `CN1CCN(c2ncc(-c3ccc4c(Nc5ccc(OCc6cccc(F)c6)c(Cl)c5)ccnc4c3)cn2)CC1` [Compound 7a], for which the “lipophilic ligand efficiency (LLE)” value in series [3] (N. fowleri, LLE calculated as pEC50-LogD7.4) was 1.40. Further, the EC50 in series [3] (setting [8]) is 16 ± 4.1 µM.
`[H]/N=C(\N/C(=N/[H])NCCCCCCNC(=N)NC(=N)Nc1ccc(Cl)cc1)Nc1ccc(Cl)cc1` [Chlorhexidine, reference compound]: the figures for the EC50 in series [1] (setting [5]), in series [3] (setting [8]) and in series [2] (setting [7]) were 11 ± 3.5 µM, 5.8 ± 0.22 µM and 1.6 ± 0.17 µM, respectively.
Regarding `CC(C)(C)c1ccc(Nc2nccc(-c3c(-c4ccc(C(F)(F)F)cc4)nn4ncccc34)n2)cc1` [Compound S26], the EC50 in series [1], in series [3] (setting [6]) and in series [2] (setting [9]) was more than 20 µM in each case.
For `CC(=O)c1cc2c3cc(C(C)=O)c(O)cc3n(CCCN(C)C)c2cc1O` [Compound 8e], the EC50 in series [3] (setting [8]) was 17 ± 0.65 µM.
Regarding `Cn1cc(-c2cnc3[nH]cc(-c4cccnc4)c3c2)cn1` [Compound 4d], the EC50 in series [3] (setting [8]) is not above 14 µM; in series [3] (read-out: Naegleria fowleri EC50 ± SD, logarithmic trophozoites, 72 h, n = 3), 8.4 ± 0.71 µM.
As for `FC(F)(F)CNc1nc(Nc2ccsc2)nc2[nH]cnc12` [Compound 6a], the EC50 in series [3] (setting [8]) is 11 ± 0.6 µM.
Regarding `Nc1cc(-c2cc3c4c(n[nH]c4c2)Nc2ccccc2O3)ncn1` [Compound 1b], the EC50 in series [1] (setting [5]) was determined as 12 ± 8.2 µM; in series [2] (setting [7]), 1.8 ± 0.46 µM.
`c1nc2c(N3CCC3)nc(Nc3ccsc3)nc2[nH]1` [Compound 6b]: the EC50 in series [3] (setting [8]) is 14 ± 5.7 µM.
Consider `c1nc2c(NCCN3CCCC3)nc(Nc3ccsc3)nc2[nH]1` [Compound 6d], for which the EC50 in series [3] (setting [8]) was more than 20 µM.
`N#Cc1cccc(Nc2nccc(-c3c(CO)nn4nc(N5CCOCC5)ccc34)n2)c1` [Compound S29]: the EC50 in series [1], in series [3] (setting [6]) and in series [2] (setting [9]) was more than 20 µM in each case.
As to `CC(=O)c1ccc2c(c1)c1cc(C(C)=O)ccc1n2CCn1ccnc1` [Compound S43], the EC50 in series [1], in series [3] (setting [6]) and in series [2] (setting [4]) was more than 20 µM throughout.
On to `CN1CCCN(c2ncc(-c3ccc4c(Nc5cnccn5)ccnc4c3)cn2)CC1` [Compound S33], for which the EC50 in series [1] (setting [5]), in series [3] (setting [6]) and in series [2] (setting [7]) was more than 20 µM in each case.
Regarding `CC(=O)c1ccc2c(c1)c1cc(C(C)=O)ccc1n2CCN1CCOC[C@H]1C` [Compound 8l], the EC50 in series [2] (setting [4]) is 12 µM; in series [2] (read-out: Balamuthia mandrillaris EC50 ± SD, logarithmic trophozoites, 72 h, n = 3) it was 13 ± 0.35 µM.
Regarding `Cc1n[nH]c(Nc2cccc3c2CCO3)c1C` [Compound S6, N-(2,3-Dihydrobenzofuran-4-yl)-3,4-dimethyl-1H-pyrazol-5-amine], the EC50 in series [1] and in series [2] (setting [4]) was more than 20 µM each time.
Regarding `Cn1cc(-c2ccnc3[nH]c(-c4ccc(C5CCCN5)cc4)cc23)cn1` (stereo not drawn) [Compound 5b], in series [2] (setting [4]), the EC50 was 7.25 ± 0.7 µM.
As to `CC(C)(O)c1nn2ncccc2c1-c1ccnc(Nc2ccc(C(N)=O)cc2)n1` [Compound S27], the EC50 in series [1], in series [3] (setting [6]) and in series [2] (setting [9]) was more than 20 µM throughout.
With `CC(=O)c1ccc2c(c1)c1cc(C(C)=O)ccc1n2CCNC1CCCCCC1` [Compound 8h], the EC50 in series [2] (setting [4]) was 7.3 ± 0.38 µM.
Consider `CN1C[C@H]2C[C@@H]1CN2c1ncc(-c2ccc3c(Nc4cnccn4)ccnc3c2)cn1` [Compound S36], for which the EC50 in series [1] (setting [5]), in series [3] (setting [6]) and in series [2] (setting [7]) was more than 20 µM in each case.
As to `N#Cc1cccc(-c2c[nH]c3ncc(-c4ccncc4)cc23)c1` [Compound 4f], the EC50 in series [3] (setting [8]) was more than 20 µM.
On to `c1cnn2ncc(-c3ccncc3)c2c1` [Compound S28], for which the EC50 in series [1], in series [3] (setting [6]) and in series [2] (setting [9]) was more than 20 µM in each case.
With `CC(=O)c1ccc2c(c1)c1cc(C(C)=O)ccc1n2CCNC1CCCC1` [Compound 8k], the EC50 in series [2] (setting [4]) is 7.4 ± 0.36 µM.
